Source: patent US4914104A, “Imidazo [1,5-a]pyrimidine derivatives and process for their preparation” (Kyorin Pharmaceutical Co., Ltd., priority 1984, dated 1990)
In brackets after ≈: the same amount, converted by molar mass.

Tests used:
Test in all cases: Antifungal activity, standard agar dilution streak method
Format in all cases: cell-based
[1] = tested on: Candida albicans 3147; details: read-out: Minimum inhibitory concentration
Procedure: (§1) The antifungal activity of the compound of the present invention was assayed by the standard agar dilution streak method against fungi.

[2] = tested on: Candida albicans KYF-602; details: KYF602, read-out: Minimum inhibitory concentration
Procedure: as §1

[3] = tested on: Candida albicans MTU-12124; details: MTU12124, read-out: Minimum inhibitory concentration
Procedure: as §1

[4] = tested on: Candida albicans IFO-1388; details: IFO1388, read-out: Minimum inhibitory concentration
Procedure: as §1

[5] = tested on: Trichophyton mentagrophytes MTU-19005; details: MTU19005, read-out: Minimum inhibitory concentration
Procedure: as §1

[6] = tested on: Trichophyton mentagrophytes MTU-19003; details: MTU19003, read-out: Minimum inhibitory concentration
Procedure: as §1

[7] = tested on: Candida albicans IFO-1594; details: IFO1594, read-out: Minimum inhibitory concentration
Procedure: as §1

[8] = tested on: Candida stellatidea IFO-1398; details: IFO1398, read-out: Minimum inhibitory concentration
Procedure: as §1

[9] = tested on: Aspergillus fumigatus MTU-06002; details: MTU06002, read-out: Minimum inhibitory concentration
Procedure: as §1

[10] = tested on: Microsporum canis 200100; details: read-out: Minimum inhibitory concentration
Procedure: as §1

Structure (SMILES) | MIC [1] [µg/mL] | MIC [2] [µg/mL] | MIC [3] [µg/mL] | MIC [4] [µg/mL] | MIC [5] [µg/mL] | MIC [6] [µg/mL] | MIC [7] [µg/mL] | MIC [8] [µg/mL] | MIC [9] [µg/mL] | MIC [10] [µg/mL]
Clc1cc(Cl)n2c(-c3cccs3)ncc2n1 [Exp. 1, 2,4-dichloro-6-(2-thienyl)imidazo[1,5-a]pyrimidine] | 3.13 (≈ 11.6 µM) | 6.25 (≈ 23.1 µM) | 6.25 (≈ 23.1 µM) | 1.56 (≈ 5.77 µM) | 1.56 (≈ 5.77 µM) | 1.56 (≈ 5.77 µM) | 1.56 (≈ 5.77 µM) | 1.56 (≈ 5.77 µM) | 6.25 (≈ 23.1 µM) | 1.56 (≈ 5.77 µM)
Clc1cc(Cl)n2c(-c3ccco3)ncc2n1 [Exp. 3] | 3.13 (≈ 12.3 µM) | 12.5 (≈ 49.2 µM) | 6.25 (≈ 24.6 µM) | 3.13 (≈ 12.3 µM) | 3.13 (≈ 12.3 µM) | 3.13 (≈ 12.3 µM) | 3.13 (≈ 12.3 µM) | 3.13 (≈ 12.3 µM) | 12.5 (≈ 49.2 µM) | 1.56 (≈ 6.14 µM)
Clc1cc(Cl)n2c(Cc3cccs3)ncc2n1 [Exp. 4] | 3.13 (≈ 11 µM) | 6.25 (≈ 22 µM) | 6.25 (≈ 22 µM) | 6.25 (≈ 22 µM) | 1.56 (≈ 5.49 µM) | 1.56 (≈ 5.49 µM) | 3.13 (≈ 11 µM) | 3.13 (≈ 11 µM) | 12.5 (≈ 44 µM) | 1.56 (≈ 5.49 µM)
Clc1cc(Cl)n2c(-c3ccsc3)ncc2n1 [Exp. 5] | 3.13 (≈ 11.6 µM) | 12.5 (≈ 46.3 µM) | 6.25 (≈ 23.1 µM) | 6.25 (≈ 23.1 µM) | 0.78 (≈ 2.89 µM) | 1.56 (≈ 5.77 µM) | 3.13 (≈ 11.6 µM) | 6.25 (≈ 23.1 µM) | 3.13 (≈ 11.6 µM) | 1.56 (≈ 5.77 µM)
Clc1cc(Cl)n2c(-c3ccc(Br)s3)ncc2n1 [Exp. 6] | 0.78 (≈ 2.23 µM) | 3.13 (≈ 8.97 µM) | 0.78 (≈ 2.23 µM) | 0.78 (≈ 2.23 µM) | 0.78 (≈ 2.23 µM) | 1.56 (≈ 4.47 µM) | 3.13 (≈ 8.97 µM) | 0.78 (≈ 2.23 µM) | 3.13 (≈ 8.97 µM) | 0.78 (≈ 2.23 µM)
Clc1cc(Cl)n2c(-c3ccc(Cl)s3)ncc2n1 [Exp. 7] | 0.2 (≈ 0.657 µM) | 0.39 (≈ 1.28 µM) | 1.56 (≈ 5.12 µM) | 0.78 (≈ 2.56 µM) | 0.78 (≈ 2.56 µM) | 0.78 (≈ 2.56 µM) | 0.2 (≈ 0.657 µM) | 0.78 (≈ 2.56 µM) |  | 
Cc1ccc(-c2ncc3nc(Cl)cc(Cl)n23)s1 [Exp. 8] | 1.56 (≈ 5.49 µM) | 6.25 (≈ 22 µM) | 3.13 (≈ 11 µM) | 6.25 (≈ 22 µM) | 1.56 (≈ 5.49 µM) | 1.56 (≈ 5.49 µM) | 6.25 (≈ 22 µM) | 1.56 (≈ 5.49 µM) |  | 
Clc1cc(Cl)n2c(-c3ccccc3)nc(Cl)c2n1 [Exp. 13, 2,4,8-trichloro-6-phenylimidazo[1,5-a]pyrimidine] | 3.13 (≈ 10.5 µM) | 3.13 (≈ 10.5 µM) | 12.5 (≈ 41.9 µM) | 3.13 (≈ 10.5 µM) | 0.78 (≈ 2.61 µM) | 0.78 (≈ 2.61 µM) | 3.13 (≈ 10.5 µM) | 6.25 (≈ 20.9 µM) | 6.25 (≈ 20.9 µM) | 0.78 (≈ 2.61 µM)
Clc1cc(Cl)n2c(-c3ccc(Br)cc3)nc(Cl)c2n1 [Exp. 17] | 1.56 (≈ 4.13 µM) | 6.25 (≈ 16.6 µM) | 3.13 (≈ 8.29 µM) | 0.78 (≈ 2.07 µM) | 3.13 (≈ 8.29 µM) | 3.13 (≈ 8.29 µM) | 1.56 (≈ 4.13 µM) | 0.39 (≈ 1.03 µM) |  | 
Clc1ccc(Cc2nc(Cl)c3nc(Cl)cc(Cl)n23)cc1 [compound 18] | 1.56 (≈ 4.5 µM) | 25 (≈ 72 µM) | 6.25 (≈ 18 µM) | 0.2 (≈ 0.576 µM) | 1.56 (≈ 4.5 µM) | 3.13 (≈ 9.02 µM) | 3.13 (≈ 9.02 µM) | 0.78 (≈ 2.25 µM) |  | 
Clc1cc(Cl)n2c(C3CCCCC3)nc(Cl)c2n1 [compound 19] | 0.78 (≈ 2.56 µM) | 1.56 (≈ 5.12 µM) | 1.56 (≈ 5.12 µM) | 0.2 (≈ 0.657 µM) | 1.56 (≈ 5.12 µM) | 3.13 (≈ 10.3 µM) | 1.56 (≈ 5.12 µM) | 1.56 (≈ 5.12 µM) |  | 
